Assay results from the supplement of paper PMC10307832.

Columns and labels:
Assay in all cases: relative viability (nuclei count vs DMSO), 5 days (fraction); higher = more cells survive
Silmitasertib = compound: O=C(O)c1ccc2c(c1)nc(Nc1cccc(Cl)c1)c1ccncc12 [Silmitasertib]
In short: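 In 1536-well plates, lung cancer cell lines rested overnight at 37 °C before five library-drug doses (not always all listed), √10 apart, were pinned onto vehicle-anchored plates. Nuclei were counted with MetaXpress from 4× Hoechst images taken after 5 days without medium change. Viability compares treated-well with vehicle-well nuclei as a median over plates, and plates needed control CV below 25% plus at least one doubling to pass.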

[1] = compound: O=C(O)c1ccc2c(c1)nc(Nc1cccc(Cl)c1)c1ccncc12 [Silmitasertib] + C[C@@H](Oc1cc(-c2cnn(C3CCNCC3)c2)cnc1N)c1c(Cl)ccc(F)c1Cl [Crizotinib] (partner 1 µM)
In short: (§1)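 Values are medians from duplicate plates. Each reflects relative viability, defined as the nuclei count of treated wells over that of vehicle wells. Lung cancer cell lines in 1536-well plates were pin-tool dosed one day after seeding with one drug alone or with a fixed anchor-drug dose plus five library-drug doses (not always all listed) in √10 steps, then fixed, stained and imaged at 4× after 5 days.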

[2] = compound: O=C(O)c1ccc2c(c1)nc(Nc1cccc(Cl)c1)c1ccncc12 [Silmitasertib] + CCNC(=O)c1noc(-c2cc(C(C)C)c(O)cc2O)c1-c1ccc(CN2CCOCC2)cc1 [Luminespib] (partner 0.01 µM)
In short: as §1

[3] = compound: O=C(O)c1ccc2c(c1)nc(Nc1cccc(Cl)c1)c1ccncc12 [Silmitasertib] + C[C@]1(O)C[C@@H](c2nc(-c3ccc4ccc(-c5ccccc5)nc4c3)c3c(N)nccn32)C1 [Linsitinib] (partner 1 µM)
In short: as §1

[4] = compound: O=C(O)c1ccc2c(c1)nc(Nc1cccc(Cl)c1)c1ccncc12 [Silmitasertib] + O=C(CCCCCCC(=O)Nc1ccccc1)NO [Vorinostat] (partner 1 µM)
In short: as §1

Cell Line	relative viability (Silmitasertib; 0.04 µM)	relative viability (Silmitasertib; 0.4 µM)	relative viability (Silmitasertib; 1.265 µM)	relative viability (Silmitasertib; 4 µM)	relative viability ([1]; first compound 0.04 µM)	relative viability ([1]; first compound 0.4 µM)	relative viability ([1]; first compound 1.265 µM)	relative viability ([1]; first compound 4 µM)	relative viability ([2]; first compound 0.04 µM)	relative viability ([2]; first compound 0.4 µM)	relative viability ([2]; first compound 1.265 µM)	relative viability ([2]; first compound 4 µM)	relative viability ([3]; first compound 0.04 µM)	relative viability ([3]; first compound 0.4 µM)	relative viability ([3]; first compound 1.265 µM)	relative viability ([3]; first compound 4 µM)	relative viability ([4]; first compound 0.04 µM)	relative viability ([4]; first compound 0.4 µM)	relative viability ([4]; first compound 1.265 µM)	relative viability ([4]; first compound 4 µM)
LU99A	1.03	1.09	0.986	0.752	0.583	0.725	0.558	0.591	0.272	0.361	0.259	0.201	0.574	0.632	0.396	0.361	0.519	0.546	0.482	0.374
LXF-289	1.05	–	1.05	1.02	0.794	–	0.842	0.825	0.592	–	0.652	0.647	0.91	–	1.08	1.06	0.751	–	0.747	0.862
NCI-H522	1.09	0.788	0.82	0.694	–	–	–	–	1.71	0.859	0.938	1.24	–	–	–	–	0.99	0.715	0.929	0.863
NCI-H1395	1.07	0.772	0.913	0.555	–	–	–	–	0.635	0.562	0.539	0.713	1.14	0.919	1	1.01	0.93	0.616	0.662	0.538
NCI-H1563	0.989	1.03	0.887	0.903	0.88	0.822	0.856	0.857	0.56	0.486	–	0.521	1.32	1.22	1.17	1.16	–	–	–	–
NCI-H1650	1.15	0.784	0.629	0.389	1.04	1	1	0.68	0.187	0.203	0.192	0.21	–	–	–	–	0.577	0.386	0.421	0.288
NCI-H1703	1.13	0.883	1.1	1.11	0.954	0.596	0.787	0.392	–	–	–	–	1.04	0.654	1.23	0.419	–	–	–	–
NCI-H1792	0.987	0.788	0.858	0.416	0.948	0.764	0.735	0.882	0.452	0.385	0.57	0.375	0.531	0.439	0.48	0.539	–	–	–	–
NCI-H1793	1.09	0.654	0.771	0.529	–	–	–	–	0.21	0.152	0.157	0.161	1.24	0.914	0.735	0.79	0.989	0.619	0.718	0.213
NCI-H2170	1.02	0.712	0.932	0.96	1.22	0.958	0.863	1.15	0.657	0.593	0.656	0.707	–	–	–	–	0.81	0.503	0.73	0.683
SW 900	1.02	0.503	0.651	0.295	–	–	–	–	0.188	0.167	0.157	0.178	–	–	–	–	0.585	0.403	0.446	0.172
